According to article PMC9147323, “Phytochemical content, especially spermidine derivatives, presenting antioxidant and antilipoxygenase activities in Thai bee pollens” (PeerJ, 2022):
Several values for one entry are separate records, joined by “and”; a condition that tells them apart may be missing. Equal values may be shown once. Marks after values point to notes of the source that are not given here.

What was measured:
[1] = DPPH free radical scavenging activity assay; details: mean ± 1 SD
Procedure: The potential of the partitioned extracts was determined as previously described ([Khongkarat et al., 2020]). Five different concentrations of each sample were prepared in DMSO. […] The absorbance was measured at a wavelength of 517 nm ([…]) using a microplate reader. Ascorbic acid (vitamin C) was used as the standard reference. Each assay was performed in triplicate. The free radical scavenging activity was calculated from Eq. (1): (1) % DPPH radical scavenging activity=A-B/A×100, where A is the […] the negative control and B is the […] of the treatment.

[2] = ABTS radical scavenging activity / Trolox equivalent antioxidant capacity (TEAC); details: for ABTS EC50: mean ± 1 SD; for ABTS (µmol TE/g): fractions after SiG60-CC and HPLC, mean ± 1SD
[3] = Ferric reducing antioxidant power (FRAP); details: fractions after SiG60-CC and HPLC; mean ± 1SD
Procedure: The FRAP assay was performed as previously described ([Sun et al., 2017]). The FRAP reagent was freshly prepared by mixing 100 mL of 300 mM acetate buffer (pH 3.6), 10 mL of 10 mM 2,4,6-tris(2pyridyl)-s-triazine solution in 40 mM hydrochloric acid, and 10 mL of 20 mM ferric chloride solution. Later, 100 µL of the sample at a desired concentration was added to three mL of the FRAP reagent and incubated at 37 °C in a water bath for 6 min. The absorbance was measured at a wavelength of 593 nm. Aqueous solutions of ferrous sulfate (0–2,000 µM) were used to establish the standard graph and the reducing capacity was expressed as µmole of Fe^2+/g extract. Each assay was performed in triplicate.

LOX from soybean = molecular target: T1, LOX from soybean (Glycine max, UniProt P08170); assay: In vitro LOXI activity; details: mean ± 1 SD
T1 sequence (P08170 1-839): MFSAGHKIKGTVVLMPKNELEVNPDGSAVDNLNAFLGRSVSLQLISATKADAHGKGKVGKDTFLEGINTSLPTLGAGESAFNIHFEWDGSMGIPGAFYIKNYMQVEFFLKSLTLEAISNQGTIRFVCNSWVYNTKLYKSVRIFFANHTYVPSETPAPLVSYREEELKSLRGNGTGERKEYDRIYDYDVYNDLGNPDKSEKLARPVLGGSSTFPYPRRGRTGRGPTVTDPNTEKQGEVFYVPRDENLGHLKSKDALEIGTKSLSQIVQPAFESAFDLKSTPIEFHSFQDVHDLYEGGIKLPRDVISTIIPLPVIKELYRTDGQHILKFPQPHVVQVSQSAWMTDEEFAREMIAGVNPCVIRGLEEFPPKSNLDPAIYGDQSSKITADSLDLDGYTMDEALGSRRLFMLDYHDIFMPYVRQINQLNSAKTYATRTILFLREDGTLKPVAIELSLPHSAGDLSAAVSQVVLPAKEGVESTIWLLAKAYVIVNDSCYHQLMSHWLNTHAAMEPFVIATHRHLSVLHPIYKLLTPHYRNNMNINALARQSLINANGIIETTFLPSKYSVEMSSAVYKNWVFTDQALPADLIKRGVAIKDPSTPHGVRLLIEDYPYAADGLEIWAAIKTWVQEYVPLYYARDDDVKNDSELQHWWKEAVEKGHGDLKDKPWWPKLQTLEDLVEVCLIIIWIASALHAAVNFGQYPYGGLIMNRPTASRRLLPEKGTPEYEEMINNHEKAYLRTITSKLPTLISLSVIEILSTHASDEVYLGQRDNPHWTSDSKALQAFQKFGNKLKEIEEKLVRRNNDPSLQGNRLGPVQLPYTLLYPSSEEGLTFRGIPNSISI

| DPPH EC50 ([1]; listed as ascorbic acid) [µg/mL] | ABTS EC50 ([2]; listed as ascorbic acid) [µg/mL] | Compound | DPPH EC50 [1] | ABTS EC50 [2] | ABTS (µmol TE/g) [2] | FRAP (µmol Fe^2+/g) [3] | LOXI IC50 (LOX from soybean) |
| --- | --- | --- | --- | --- | --- | --- | --- |
| 68.00 ± 1.13 | 44.54 ± 0.19 | O=C1O[C@H]([C@@H](O)CO)C(O)=C1O [Ascorbic acid, reference compound] | 68.00 ± 1.13^a µg/mL and 68.00 ± 1.13^b µg/mL | 44.54 ± 0.19^a µg/mL and 44.54 ± 0.19^c µg/mL and 44.54 ± 0.19^b µg/mL |  |  |  |
|  |  | COc1cc(/C=C/C(=O)NCCCCN(CCCNC(=O)/C=C/c2ccc(O)c(OC)c2)C(=O)/C=C/c2ccc(O)c(OC)c2)ccc1O [DCMMBP3-2, N^1, N^5, N^10-tri-(E, E, E)-feruloyl spermidine] | 57.7 ± 2.77^a µg/mL | 28.29 ± 1.05^b µg/mL | 2,339.16 ± 34.62^b µmol TE/g | 3,091.78 ± 44.48^b µmol Fe^2+/g | 11.57 ± 0.93^a µg/mL |
|  |  | COc1cc(C=CC(=O)NCCCCN(CCCNC(=O)C=Cc2ccc(O)c(OC)c2)C(=O)C=Cc2ccc(O)c(OC)c2)ccc1O [DCMMBP3-1, N^1, N^5, N^10-triferuloyl spermidine] | 53.05 ± 2.60^a µg/mL | 25.38 ± 0.67^a µg/mL | 2,527.63 ± 7.99^a µmol TE/g | 3,477.33 ± 52.07^a µmol Fe^2+/g | 11.31 ± 0.46^a µg/mL |
